Assay results reported in PubChem BioAssay AID200 (DTP/NCI, 2004).
“And” between values parts separate entries of the source, which are not always exact repeats. Equal values may be shown once. Inconclusive results and toxic doses are left out.

System: B6C3F1 mice, B16 melanoma ip, median survival T/C
Assay: NCI In Vivo Anticancer Drug Screen. Data for tumor model B16 Melanoma (intraperitoneal) in B6C3F1 mice
Conditions: endpoint: median survival time, schedule: Q01DX009 (ip), higher = longer survival
Summary of the method: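 Tumor-bearing mice received test compound; a separate group got vehicle only. Survival was then compared, with results reported as treated over control.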

[1] = dose: 12.5 mg/kg/injection, vehicle: Klucel (hydroxypropylcellulose) (HPC)
[2] = dose: 25.0 mg/kg/injection, vehicle: Klucel (hydroxypropylcellulose) (HPC)
[3] = dose: 50.0 mg/kg/injection, vehicle: Klucel (hydroxypropylcellulose) (HPC)
[4] = dose: 100.0 mg/kg/injection, vehicle: Klucel (hydroxypropylcellulose) (HPC)
[5] = dose: 200.0 mg/kg/injection, vehicle: Klucel (hydroxypropylcellulose) (HPC)

C=C1COC(O)(C2OCOC(C3CC(=O)NC(=O)C3)C2O)C1C (configuration not stated)
T/C (dose: 4.0 micrograms/kg/injection, vehicle: water): 94 % of control | T/C (dose: 8.0 micrograms/kg/injection, vehicle: water): 111 % of control and 113 % of control | T/C (dose: 16.0 micrograms/kg/injection, vehicle: water): 109 % of control | T/C (dose: 32.0 micrograms/kg/injection, vehicle: water): 115 % of control

NC(CNc1ccc(O)cc1)C(=O)O (configuration not stated)
T/C (dose: 75.0 mg/kg/injection, vehicle: saline): 111 % of control | T/C (dose: 100.0 mg/kg/injection, vehicle: saline): 103 % of control | T/C (dose: 150.0 mg/kg/injection, vehicle: saline): 101 % of control

[Cl][Pt+2][Cl].[NH-]c1cc2ccccc2cc1[NH-]
T/C (dose: 20.0 mg/kg/injection, vehicle: saline with Tween-80): 89 % of control | T/C (dose: 40.0 mg/kg/injection, vehicle: saline with Tween-80): 104 % of control | T/C (dose: 80.0 mg/kg/injection, vehicle: saline with Tween-80): 98 % of control | T/C (dose: 160.0 mg/kg/injection, vehicle: saline with Tween-80): 99 % of control | T/C (dose: 320.0 mg/kg/injection, vehicle: saline with Tween-80): 111 % of control

CN(C)[C@@H]1C(=O)C(C(=O)NCN2CCN(C(=N)N=C(N)N)CC2)=C(O)[C@@]2(O)C(=O)C3=C(O)c4c(O)cccc4[C@@](C)(O)[C@H]3C[C@@H]12
T/C (dose: 0.31 mg/kg/injection, vehicle: saline): 94 % of control | T/C (dose: 0.62 mg/kg/injection, vehicle: saline): 98 % of control | T/C (dose: 1.25 mg/kg/injection, vehicle: saline): 111 % of control and 103 % of control | T/C (dose: 2.5 mg/kg/injection, vehicle: saline): 90 % of control and 103 % of control | T/C (dose: 5.0 mg/kg/injection, vehicle: saline): 101 % of control and 103 % of control

O=C(O)CC(NC(=O)CP(=O)(O)O)C(=O)O.[NH-]C1CCCCC1[NH-].[Pt+2] (configuration not stated)
T/C (dose: 0.78 mg/kg/injection, vehicle: dextrose): 157 % of control | T/C (dose: 3.12 mg/kg/injection, vehicle: dextrose): 175 % of control

CC1(C)CC1(Br)Br
T/C (dose: 6.25 mg/kg/injection, vehicle: saline with Tween-80): 100 % of control | T/C (dose: 12.5 mg/kg/injection, vehicle: saline with Tween-80): 93 % of control | T/C (dose: 25.0 mg/kg/injection, vehicle: saline with Tween-80): 104 % of control | T/C (dose: 50.0 mg/kg/injection, vehicle: saline with Tween-80): 97 % of control | T/C (dose: 100.0 mg/kg/injection, vehicle: saline with Tween-80): 100 % of control | T/C (dose: 200.0 mg/kg/injection, vehicle: saline with Tween-80): 92 % of control

CC1C=NNC1=O (configuration not stated)
T/C [1]: 100 % of control | T/C [2]: 102 % of control | T/C [3]: 117 % of control | T/C [4]: 92 % of control | T/C [5]: 95 % of control | T/C (dose: 400.0 mg/kg/injection, vehicle: Klucel (hydroxypropylcellulose) (HPC)): 95 % of control

OC1OC2COC(c3ccccc3)OC2C(O)C1O (configuration not stated)
T/C (dose: 25.0 mg/kg/injection, vehicle: water): 103 % of control | T/C (dose: 50.0 mg/kg/injection, vehicle: water): 96 % of control | T/C (dose: 100.0 mg/kg/injection, vehicle: water): 110 % of control | T/C (dose: 200.0 mg/kg/injection, vehicle: water): 98 % of control | T/C (dose: 400.0 mg/kg/injection, vehicle: water): 94 % of control | T/C (dose: 800.0 mg/kg/injection, vehicle: water): 93 % of control

CC(O)C(NC(=O)OCC1c2ccccc2-c2ccccc21)C(=O)O (configuration not stated)
T/C [1]: 94 % of control and 98 % of control | T/C [2]: 88 % of control and 96 % of control | T/C [3]: 100 % of control and 101 % of control | T/C [4]: 93 % of control and 98 % of control | T/C [5]: 90 % of control and 100 % of control
